{
  "source": "patent US20110150873A1",
  "about": "“ANTI-INFLAMMATORY COMPOSITIONS AND COMBINATIONS” (CAMBRIDGE ENTERPRISE LIMITED, priority 2007, published 2011)",
  "key": {"[1]": {"system": "Th1/Th2 polarisation axis", "assay": "ovalbumin-sensitised rat model of asthma: splenocyte Th1/Th2 ratio by flow cytometry", "type": "in vivo, Brown Norway rats", "conditions": "low dose B′ (0.03 mg/kg)", "protocol": "(§1) Briefly, adult Brown Norway rats (200-300 g body weight; n=10 per group) are sensitised by a single interperitoneal injection of 0.1 mg Ovalbumin on day 0. Each rat then receives an intratracheal challenge with a solution of 1% ovalbumin (w/v) on day 8, and with 2% ovalbumin (w/v) on days 15, 18 and 21. The animals are then sacrificed 3 hours after the final challenge on day 21. Note that ovalbumin (Sigma; purest available grade) can be made endotoxin-free by passage over EndoTrap Red columns (purchased from Cambrex; used in accordance with the manufacturer's instructions), and the endotoxin level confirmed as <5 EU/mg protein using the LAL assay (QCL-1000; Cambrex; performed in accordance with the manufacturer's instructions; 1 mg of standard endotoxin contains ˜900,000 EU/mg). This ensures that the lung inflammation response results from the allergic response to the ovalbumin protein, rather than from unintended LPS stimulation which occurs even with the highest purity grade commercial ovalbumin preparations, and therefore ensures the model more closely represents the underlying molecular pathology of human asthma. […]\nThe spleen is also removed from each mouse and placed in RPMI+10% FCS+antibiotics. […] The resulting cell suspensions are then centrifuged (328 g; 5 mins) and washed in RPMI+10% FCS+antibiotics, before being resuspended in fresh media and counted using a haemocytometer. […]"}, "[2]": {"system": "serum growth hormone (GH)", "assay": "ovalbumin-sensitised rat model of asthma: serum growth hormone ELISA (side-effect measure)", "type": "in vivo, Brown Norway rats", "protocol": "Briefly, adult Brown Norway rats (200-300 g body weight; n=10 per group) are sensitised by a single interperitoneal injection of 0.1 mg Ovalbumin on day 0. Each rat then receives an intratracheal challenge with a solution of 1% ovalbumin (w/v) on day 8, and with 2% ovalbumin (w/v) on days 15, 18 and 21. The animals are then sacrificed 3 hours after the final challenge on day 21. Note that ovalbumin (Sigma; purest available grade) can be made endotoxin-free by passage over EndoTrap Red columns (purchased from Cambrex; used in accordance with the manufacturer's instructions), and the endotoxin level confirmed as <5 EU/mg protein using the LAL assay (QCL-1000; Cambrex; performed in accordance with the manufacturer's instructions; 1 mg of standard endotoxin contains ˜900,000 EU/mg). This ensures that the lung inflammation response results from the allergic response to the ovalbumin protein, rather than from unintended LPS stimulation which occurs even with the highest purity grade commercial ovalbumin preparations, and therefore ensures the model more closely represents the underlying molecular pathology of human asthma.\nOne group of mice (acting as a baseline control) receives no ovalbumin challenges, but are otherwise treated identically. A second group (positive control) receives the challenges but no drug treatment. Further groups are treated identically, but receive daily dosage with: (a) (S)-3-(2′,2′-dimethylpropanoylamino)-tetrahydropyridin-2-one (B′) at a dose of either 0.3 mg/kg or 0.03 mg/kg via oral gavage from day 8 until day 21, with dosage being given 1 hr prior to any subsequent challenge with ovalbumin made on the same day. […]\nSerum is also prepared from a terminal bleed, and levels of GH are measured using a commercially available ELISA (Diagnostic Systems Laboratories, Inc; DSLabs) in accordance with the manufacturer's instructions."}, "[3]": {"system": "leukocyte recruitment into the lung", "assay": "ovalbumin-sensitised rat model of asthma: total BAL leukocyte count", "type": "in vivo, Brown Norway rats", "conditions": "low dose alone: 0.03 mg/kg B′ or 0.01 mg/kg DMX, daily oral", "protocol": "as §1, with “EU/mg).” for “EU/mg). This ensures that the lung inflammation response results from the allergic response to the ovalbumin protein, rather than from unintended LPS stimulation which occurs even with the highest purity grade commercial ovalbumin preparations, and therefore ensures the model more closely represents the underlying molecular pathology of human asthma.”\nOn sacrifice, total lung leukocyate recruitment is assessed by performing a broncheoalveolar lavage (BAL) using 4 lots of 3 ml sterile phosphate-buffered saline introduced through a tracheal cannula. For each animal, the BAL washes are combined, and the total cell population counted (using a haemocytometer)."}, "[4]": {"system": "LPS-induced serum TNF-α", "assay": "sub-lethal LPS-induced endotoxemia assay", "type": "in vivo, adult female CD-1 mice", "conditions": "for % Inhibition of LPS-induced serum TNF-α, Mean: oral route, six mice", "source_text": "In this assay, mice are given a non-specific pro-inflammatory challenge using bacterial endotoxin (LPS), and the extent of the systemic inflammatory response (measured by serum levels of the central pro-inflammatory cytokine TNF-α, which is essentially absent from the blood under normal conditions, but is rapidly elevated in response to a wide range of inflammatory stimuli). We have selected this model, even though it is not, itself, a particularly close model of any human inflammatory disease condition, because TNF-α is known to be important in very many diseases (including rheumatoid arthritis, autoimmune disorders, Crohn's Disease, atherosclerosis, asthma and many more). Consequently, agents which suppress TNF-α production are already used clinically (e.g. etanercept (Enbrel™) and other anti-TNF-α antibody products, such as infliximab (Remicade™) and adalimumab (Humira™)) to treat a wide range of such diseases.\nMice (adult female CD-1 mice in groups of 6) were pretreated with various doses of each compound, either by the subcutaneous route 30 mins prior to LPS challenge, or by the oral route (via gavage) 60 mins prior to LPS. The mice were then challenged with an intraperitoneal injection of 750 μg of bacterial LPS and sacrificed 2 hours later. Serum was prepared from a terminal bleed by cardiac puncture, and the concentration of TNF-α determined by ELISA (R&D Systems). In each experiment, a group of 6 mice receive no LPS to act as a negative control, and a second group receive only LPS (with no candidate inhibitor). The level of TNF-α in serum from these animals which received LPS without drug pre-treatment is arbitrarily set to 100% (and is typically of the order of 6,000 pg/ml, compared with levels of <10 pg/ml among the negative control group, which received no LPS)."}},
  "note": "Entries after “also recorded” stand apart in the source; their conditions may differ.",
  "data": [
    {"molecule": "CC(C)(C)C(=O)N[C@H]1CCCNC1=O", "note": "[B′, (S)-3-(2′,2′-dimethylpropanoylamino)-tetrahydropyridin-2-one]", "values": [
      {"measurement": "re-balancing of the Th1/Th2 axis", "setting": "[1]", "value": "statistically significant Th1 shift"},
      {"measurement": "significant suppression of serum GH levels", "setting": "[2]; B′ alone", "value": "not"},
      {"measurement": "effect on leukocyte accumulation in the lung", "setting": "[3]", "value": "ineffective; also recorded: neither compound, when administered alone, has a statistically significant effect"}
    ]},
    {"molecule": "C[C@@H]1C[C@H]2[C@@H]3CCC4=CC(=O)C=C[C@]4(C)[C@@]3(F)[C@@H](O)C[C@]2(C)[C@@]1(O)C(=O)CO", "note": "[DMX, Dexamethasone, reference compound]", "values": [
      {"measurement": "suppression of serum GH levels", "setting": "[2]; high dose DMX (1 mg/kg)", "value": "≤ 80", "unit": "%"},
      {"measurement": "suppression of serum GH levels", "setting": "[2]; low dose DMX (0.01 mg/kg)", "value": "approximately 10%"},
      {"measurement": "% Inhibition of LPS-induced serum TNF-α, Mean", "setting": "[4]; Experiment 1, DMX 3 × 10^−7 mg", "value": 19, "unit": "%"},
      {"measurement": "% Inhibition of LPS-induced serum TNF-α, Mean", "setting": "[4]; Experiment 2, DMX 3 × 10^−7 mg", "value": 37, "unit": "%"}
    ]},
    {"molecule": "(S)-3-(adamantylamino)-caprolactam [B]", "values": [
      {"measurement": "% Inhibition of LPS-induced serum TNF-α, Mean", "setting": "[4]; Experiment 1, B 3 × 10^−6 mg", "value": 34, "unit": "%"},
      {"measurement": "% Inhibition of LPS-induced serum TNF-α, Mean", "setting": "[4]; Experiment 1", "value": 15, "unit": "%"},
      {"measurement": "% Inhibition of LPS-induced serum TNF-α, Mean", "setting": "[4]; Experiment 2, B 3 × 10^−6 mg", "value": 54, "unit": "%"},
      {"measurement": "% Inhibition of LPS-induced serum TNF-α, Mean", "setting": "[4]; Experiment 2", "value": 34, "unit": "%"},
      {"measurement": "anti-inflammatory effect on the TNF-α response", "setting": "[4]; administered separately: 0.3 μg per mouse DMX or 0.1 μg/mouse B", "value": "minor anti-inflammatory effect which was not statistically significant in every experiment"}
    ]}
  ]
}
